Measured values: US5883092A, “Pyrimidine derivatives as endothelin antagonists” (Kowa Co., Ltd., priority 1995, dated 1999)

What was measured:
[1] = target: T1, ETB (Rattus norvegicus, UniProt P21451); test: Endothelin binding inhibition experiment, 125I-endothelin-1 binding, ETB, membranes from rat brain; details: 125I-endothelin-1 2×10^-11 M, 2 hours at 25° C., pH 7.4
T1 construct: Rat brain tissue was minced, and a crude receptor membrane sample was prepared; from tissue; host or cells: rat brain; crude membranes
T1 sequence (P21451 27-442): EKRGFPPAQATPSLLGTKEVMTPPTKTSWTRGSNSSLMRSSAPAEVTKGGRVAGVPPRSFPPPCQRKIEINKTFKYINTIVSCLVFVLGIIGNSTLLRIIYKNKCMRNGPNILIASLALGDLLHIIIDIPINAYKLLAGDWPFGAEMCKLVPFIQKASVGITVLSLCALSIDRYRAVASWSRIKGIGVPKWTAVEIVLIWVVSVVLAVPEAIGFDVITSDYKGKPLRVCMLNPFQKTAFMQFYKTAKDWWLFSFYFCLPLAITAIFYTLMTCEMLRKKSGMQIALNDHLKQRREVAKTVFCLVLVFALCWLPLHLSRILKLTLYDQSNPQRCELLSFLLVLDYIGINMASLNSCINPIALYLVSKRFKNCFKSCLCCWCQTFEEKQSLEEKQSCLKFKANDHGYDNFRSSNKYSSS
Description: (§1) Endothelin binding inhibition experiment
(§2) The thus-obtained membrane sample (1 μl) was incubated together with ^125 I-endothelin-1 (2×10^-11 M) and various concentrations of the compounds, for 2 hours at 25° C., in 250 μl in total volume of 50 mM Tris-HCl buffer (pH 7.4) containing 0.5% bovine serum albumin. The incubated mixture was filtered by use of HVPP filters (pore size 0.45 μm, product of Milipore). The filters were washed with cold buffer A four times, and then measured with a gamma-ray counter (Aroka Autowell Gamma System ARC-251). Preparation of crude receptor membrane samples (ETB) from rat brain and assay of ^125 I endothelin-1:
Rat brain tissue was minced, and a crude receptor membrane sample was prepared in a manner similar to that used in the aforementioned case of porcine thoracic aorta. Also, ^125 I-endothelin-1 assay was performed in the same manner as described above.

[2] = target: T2, ETA (Sus scrofa, UniProt Q29010); test: Endothelin binding inhibition experiment, 125I-endothelin-1 binding, ETA, membranes from smooth muscles of porcine thoracic aorta; details: 125I-endothelin-1 2×10^-11 M, 2 hours at 25° C., pH 7.4
T2 construct: crude receptor membrane samples (ETA) from smooth muscles of porcine thoracic aorta; from tissue; host or cells: porcine thoracic aorta smooth muscle, endothelium removed; crude membranes
T2 sequence (Q29010 21-427): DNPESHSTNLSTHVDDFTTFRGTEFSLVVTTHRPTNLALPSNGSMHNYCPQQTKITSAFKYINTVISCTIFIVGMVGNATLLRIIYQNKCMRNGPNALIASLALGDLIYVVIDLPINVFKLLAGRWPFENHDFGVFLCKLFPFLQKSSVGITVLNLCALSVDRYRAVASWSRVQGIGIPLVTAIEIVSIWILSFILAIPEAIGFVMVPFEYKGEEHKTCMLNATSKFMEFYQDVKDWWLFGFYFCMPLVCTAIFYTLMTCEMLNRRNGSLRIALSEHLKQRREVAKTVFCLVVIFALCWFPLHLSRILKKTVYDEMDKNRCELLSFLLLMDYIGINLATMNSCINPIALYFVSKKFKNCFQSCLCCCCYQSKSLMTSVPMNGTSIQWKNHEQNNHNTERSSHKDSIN
Description: as §1
Preparation of crude receptor membrane samples (ETA) from smooth muscles of porcine thoracic aorta:
Porcine thoracic aorta which was separated from the fatty tissue and then was removed endothelium with gauze was minced, and then homogenized in three times the volume of Tris-HCl buffer (pH 7.4) (buffer A) containing 0.25M sucrose, 3 mM ethylenediaminetetraacetic acid, 5 μg/ml of aprotinin, 10 μg/ml of pepstatin A, 10 μg/ml of leupeptin, and 0.1 μM p-amidinophenylmethanesulfonyl fluoride. After centrifugation for 30 minutes at 1,000×g, the supernatant was further centrifuged for 30 minutes at 100,000×g. The pellets were suspended in buffer A, and recentrifuged for 30 minutes at 100,000×g. The pellets were suspended in buffer A and the suspension was stored at -80° C. ^125 I-Endothelin-1 binding assay:
as §2, with “endothelin-1: […]” for “endothelin-1:”

| Compound | IC50 [1] [nM] | IC50 [2] [nM] |
| --- | --- | --- |
| COc1ccccc1Oc1c(NS(=O)(=O)c2ccc(C(C)(C)C)cc2)nc(N2CCOCC2)nc1OCCC(=O)Nc1ccccc1C(C)C [Example 2, N-(2-isopropylphenyl)-3-[6-(4-t-butylphenylsulfonylamino)-5-(2-methoxyphenoxy)-2-morpholino-4-pyrimidinyloxy]propionamide] | 0.86 | 63 |
| COc1ccccc1Oc1c(NS(=O)(=O)c2ccc(C(C)(C)C)cc2)nc(N2CCOCC2)nc1OCCC(=O)Nc1ccccn1 [Example 3, N-(2-pyridyl)-3-[6-(4-t-butylphenylsulfonylamino)-5-(2-methoxyphenoxy)-2-morpholino-4-pyrimidinyloxy]propionamide] | 29 | 32 |
| COc1ccccc1Oc1c(NS(=O)(=O)c2ccc(C(C)(C)C)cc2)nc(N2CCN(C=O)CC2)nc1OCCC(=O)Nc1ccccc1C(C)C [Example 13, N-(2-isopropylphenyl)-3-[6-(4-t-butylphenylsulfonylamino)-2-(4-formylpiperazinyl)-5-(2-methoxyphenoxy)-4-pyrimidinyloxy]-propionamide] | 5.4 | 68 |
| COc1ccccc1Oc1c(NS(=O)(=O)c2ccc(C(C)(C)C)cc2)nc(N2CCOCC2)nc1OCCC(=O)OCc1ccccc1 [Example 23, benzyl 3-[6-(4-t-butylphenylsulfonylamino)-5-(2-methoxyphenoxy)-2-morpholino-4-pyrimidinyloxy]propionate] | 5.1 | 240 |
